Structures can show the parent of a compound that is named as a salt.
How the values were obtained:
Type in all cases: cell-based
HCT-116 cells = assay: MTT experiment, HCT-116 cells; conditions: Homo sapiens; HCT-116, MTT, 48 hours, hydrochloride salt
Description: (§1) Experiment on Inducing Apoptosis of Breast Cancer, Colon Cancer and Lung Cancer Cancer Cells
(§2) Method: collecting logarithmic growth phase MDA-MB-231, MCF-7, HCT-116, PC9-AR, PC9-GR, PC9 cells, counting, adjusting the cell suspension concentration to 50000 cells/mL, adding 100 ul cell suspension to each well, that is, 5000 cells per well, and adding the above cancer cells to the hydrochloride of the naphthylamine compounds of 1a and 3a of the invention, to enable the final concentration of the hydrochloride of the naphthylamine compound in the system to be several gradients of 0.1, 0.3, 1, 3, 10, 30, 100, 300 (μmol/L), and continuing culturing for 48 hours; after treating with drug, adding 50 μL of Thiazole Blue reagent (1 mg/mL) to each well, incubating at 37° C. for 4 hours, shaking the plate to discard the liquid in the well, draining the water, absorbing the remaining liquid with filter paper, and then adding 100 μL of dimethyl sulfoxide; reacting on a horizontal shaker for 7-8 minutes, until the blue-violet crystals are completely dissolved; reading the value with a microplate reader, measuring the OD value at the absorption wavelength of 570 nm, recording the result. […]

PC9AR cells = assay: MTT experiment, PC9-AR cells; conditions: 48 hours, hydrochloride salt
Description: as §1, §2

PC9 cells = assay: MTT experiment, PC9 cells; conditions: Homo sapiens, PC-9, 48 hours, hydrochloride salt
Description: as §1, §2

PC9GR cells = assay: MTT experiment, PC9-GR cells; conditions: 48 hours, hydrochloride salt
Description: as §1, §2

MDA-MB-231 cells = assay: MTT experiment, MDA-MB-231 cells; conditions: Homo sapiens; MDA-MB-231, MTT, 48 hours, hydrochloride salt
Description: as §1, §2

MCF-7 cells = assay: MTT experiment, MCF-7 cells; conditions: Homo sapiens, MCF7; MCF-7, MTT, 48 hours, hydrochloride salt
Description: as §1, §2

p-STAT3 in HCC827 cells = assay: Westernblot experiment, STAT3 and p-STAT3 in IL-6 stimulated HCC827 cells; conditions: HCC827, 10, 30, 100 and 300 μmol/L, IL-6 30 ng/mL
Description: (1) Taking HCC827 cells in logarithmic growth phase, digesting them with trypsin, preparing a single cell suspension with a density of 300,000 cells/mL with RPMI-1640 medium containing 10% fetal bovine serum, and adding 2 mL of cell suspension to each well to inoculate a 6-well cell culture plate.
(2) Incubating in a 37° C., 5% CO2 incubator. After the cells adhere to the wall, adding the experimental group with different concentrations of the drug SMY002 (3a), and the concentration gradients are: 10, 30, 100 and 300 μmol/L; adding 30 μL of interleukin-6 (IL-6) one hour later at a concentration of […] to stimulate the cells, and the final concentration of interleukin-6 (IL-6) is 30 ng/mL.
(3) After continuing to culture for 0.5 h, lysing the cells with RIPA lysis buffer to collect proteins. […]
(4) Transferring the cell supernatant to a clean centrifuge tube. Dividing the cell supernatant into two parts: taking 5 μL and add it to a 1.5 mL centrifuge tube for BCA to measure the protein content, then adding 45 μL of 1× phosphate buffered saline (PBS) and mixing well for later use; quantitatively taking 140 μL of the remaining cell supernatant, adding 35 μL of 5×SDS loading buffer, boiling in boiling water for 8 minutes after mixing, and storing in a refrigerator at −20° C. after centrifugation. […]

`Nc1ccc(OC(=O)c2ccc(OCCN3CCCCC3)cc2)c2ccccc12` [SMY001 (1a), 4-(2-(piperidin-1-yl)ethoxy) benzoic acid-4-amino-1-naphthyl ester dihydrochloride] was tested, and the IC50 (HCT-116 cells) was 25400 nM, the IC50 (PC9AR cells) was 38500 nM and the IC50 (PC9 cells) was 26600 nM. The IC50 (PC9GR cells) was 30400 nM and the IC50 (MDA-MB-231 cells) was 14900 nM.
In the case of `Nc1ccc(OCc2ccc(OCCN3CCCCC3)cc2)c2ccccc12` [SMY002 (3a), 4-(4-(2-(piperidin-1-yl)ethoxy)benzyloxy)-1-naphthylamine dihydrochloride], the IC50 (HCT-116 cells) is reported as 1980 nM, the IC50 (MCF-7 cells) is reported as 2040 nM and the IC50 (PC9AR cells) is reported as 655 nM. For the same compound, the IC50 (PC9 cells) was 473 nM, the IC50 (PC9GR cells) was 472 nM and the IC50 (MDA-MB-231 cells) was 1810 nM. The “amount of STAT3 protein expressed (Westernblot)” value (p-STAT3 in HCC827 cells) was “remains unchanged” and the “expression of p-STAT3 (Westernblot)” value (p-STAT3 in HCC827 cells) was “significantly inhibits”.

Source: patent publication US20220098162A1, “APHTHYLAMINE COMPOUND AND BIOLOGICALLY ACCEPTABLE SALT THEREOF, PREPARATION METHOD THEREFOR, AND APPLICATION THEREOF” (Henan Radiomedical Science and Technology Co., Ltd, priority 2019, published 2022)
